# Patent publication US20060035811A1, “Methods of treating dry eye disease with lantibiotics” (priority 2002, published 2006)
# Tested on: New Zealand (albino) rabbits
# Assay: Tear secretion in albino rabbits after topical instillation (Schirmer strips)
# Format: in vivo
# Conditions: for Tear secretion % Mean (% of baseline) / Tear secretion (mm) Mean: 1×50 microliters, right eye
# Procedure: New Zealand (albino) rabbits were the experimental model used to test the action of duramycin. Four animals were involved for each formulation: Duramycin was used in a formulation at 0.5 mg/ml dissolved in saline (0.9% sodium chloride) at pH between 6 and 7 and was compared with 0.9% sodium chloride and with 0.9% sodium chloride at pH between 6 and 7 (vehicle). Animals were randomly allocated into 3 groups of 4 animals each by a computer controlled program.
# Aliquots (1×50 microliters) were administered using a micropipette into the right eyes while the left eyes remained untreated. Sampling was performed in the right eyes for a constant interval of 15 seconds before the instillation and at 15, 30, 60, 120, and 180 minutes after instillation. Tear secretion was collected and measured on treated eyes using Schimer strips.
# Tear secretion, measured as the tear migration onto Schirmer strips for 15 seconds, was expressed in millimeters (mm) and in percents (%) of baseline values. The % of baseline values was the mean of individual %. T max is the time when the maximum mean value is obtained and is expressed in minutes (min).
# Mean AUC0-180 min value (area under the curve from baseline to 180 min) is the mean of individual AUC0-180 min values calculated using the trapezoidal rule and is expressed in mm×min and in %×min.
# [1] = 15 min after instillation, 0.5 mg/ml
# [2] = 30 min after instillation, 0.5 mg/ml
# [3] = 60 min after instillation, 0.5 mg/ml
# [4] = 120 min after instillation, 0.5 mg/ml
# [5] = 180 min after instillation, 0.5 mg/ml
# [6] = baseline to 180 min, trapezoidal rule, mean of individual values, 0.5 mg/ml
substance,measurement,setting,value
duramycin,Tear secretion % Mean (% of baseline),"0 min (before instillation, baseline), 0.5 mg/ml",100.0%
same,Tear secretion (mm) Mean,"0 min (before instillation, baseline), 0.5 mg/ml, Schirmer strip 15 seconds",2.8 mm
same,"Increase of tear secretion compared with saline, based on AUC0-180 min in %",0.5 mg/ml vs saline treatment,3.56 times
same,"Increase of tear secretion compared with saline, based on AUC0-180 min in mm",0.5 mg/ml vs saline treatment,1.92 times
same,"Increase of tear secretion compared with saline, based on maximum value in %",0.5 mg/ml vs saline treatment,4.59 times
same,"Increase of tear secretion compared with saline, based on maximum value in mm",0.5 mg/ml vs saline treatment,2.47 times
same,Tear secretion % Mean (% of baseline),[1],329.2%
same,Tear secretion (mm) Mean,[1],6.0 mm
same,Tear secretion % Mean (% of baseline),[2],459.4%
same,Tear secretion (mm) Mean,[2],9.4 mm
same,Tear secretion % Mean (% of baseline),[3],260.4%
same,Tear secretion (mm) Mean,[3],4.8 mm
same,Tear secretion % Mean (% of baseline),[4],157.3%
same,Tear secretion (mm) Mean,[4],3.5 mm
same,Tear secretion % Mean (% of baseline),[5],245.8%
same,Tear secretion (mm) Mean,[5],4.9 mm
same,Tmax (time when the maximum mean tear secretion is obtained),"after instillation, 0.5 mg/ml",30 min
same,AUC 0-180 of tear secretion,[6],891.6 mm × min
same,AUC 0-180 of tear secretion (% of baseline),[6],44554.7 % × min
